Patent US11590139B2, “Substituted aminopurine compounds, compositions thereof, and methods of treatment therewith” (Signal Pharmaceuticals, LLC, priority 2014, dated 2023)
Read-outs that look alike come from different tables or passages of the source.

Test system: Lox-IMVI melanoma cell line
Assay: Lox-IMVI anti-proliferative assay (growth inhibition, Cell Titer-Glo)
Assay type: cell-based, human
Settings: Homo sapiens
Outline: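 IC50 values reflect the concentration giving 50% of DMSO-control luminescence after 72 h of treatment, fitted with a four-parameter logistic model. Cells were cultured in RPMI + 10% FBS with compound from 0.5 nM to 10 μM.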

[1] = Lox-IMVI melanoma cell line, anti-proliferative assay, read-out: Activity (IC50 activity level)
[2] = IC50 activity level in the cell-based Lox-IMVI anti-proliferative assay, read-out: Activity

Row | SMILES | IC50 [1] [nM] | IC50 [2] [nM] | also measured
1 | CS(=O)(=O)N1CCC[C@@H](Nc2ncc3nc(Nc4c(F)cc(C#N)cc4Cl)n([C@H]4CC[C@@H](C(N)=O)CC4)c3n2)C1 [Example 704, (1S,4s)-4-(8-(2-chloro-4-cyano-6-fluorophenylamino)-2-((R)-1-(methylsulfonyl)piperidin-3-ylamino)-9H-purin-9-yl)cyclohexanecarboxamide] | > 1000 |  | 
2 | CC1(C)COCC[C@H]1Nc1ncc2nc(Nc3c(F)cc(Cl)cc3Cl)n([C@H]3CC[C@@H](C(N)=O)CC3)c2n1 [Example 764, (1S,4s)-4-(8-(2,4-dichloro-6-fluorophenylamino)-2-((R)-3,3-dimethyltetrahydro-2H-pyran-4-ylamino)-9H-purin-9-yl)cyclohexanecarboxamide] | 500 to 1000 |  | 
3 | NC(=O)[C@H]1CC[C@@H](n2c(Nc3c(F)cc(Cl)cc3Cl)nc3cnc(NC4CCC(N5C(=O)CCC5=O)CC4)nc32)CC1 (some centres unmarked) [Example 667, (1s,4s)-4-(8-(2,4-dichloro-6-fluorophenylamino)-2-(4-(2,5-dioxopyrrolidin-1-yl)cyclohexylamino)-9H-purin-9-yl)cyclohexanecarboxamide] | > 1000 |  | 
4 | CC[C@H](C)Nc1ncc2nc(Nc3c(F)cc(F)cc3Cl)n([C@H]3CC[C@@H](C(N)=O)CC3)c2n1 [Example 338, (1R,4s)-4-(2-(sec-butylamino)-8-(2-chloro-4,6-difluorophenylamino)-9H-purin-9-yl)cyclohexanecarboxamide] |  | 500 to 1000 | 
5 | C[C@]1(C(N)=O)CC[C@@H](n2c(Nc3c(F)cc(C#N)cc3Cl)nc3cnc(NC4CCC4)nc32)CC1 [Example 600, (1s,4s)-4-(8-(2-chloro-4-cyano-6-fluorophenylamino)-2-(cyclobutylamino)-9H-purin-9-yl)-1-methylcyclohexanecarboxamide] | < 250 |  | 
6 | NC(=O)[C@H]1CC[C@@H](n2c(Nc3c(F)cc(F)cc3Cl)nc3cnc(NC4CC(F)(F)C4)nc32)CC1 [Example 228, (1s,4s)-4-(8-(2-chloro-4,6-difluorophenylamino)-2-(3,3-difluorocyclobutylamino)-9H-purin-9-yl)cyclohexanecarboxamide] |  | 500 to 1000 | 
7 | NC(=O)[C@H]1CC[C@@H](n2c(Nc3c(Cl)cccc3Cl)nc3cnc(N[C@H]4CCC[C@@H](O)C4)nc32)CC1 [Example 370, (1R,4s)-4-(8-(2,6-dichlorophenylamino)-2-((1S,3R)-3-hydroxycyclohexylamino)-9H-purin-9-yl)cyclohexanecarboxamide] |  | > 1000 | 
8 | NC(=O)[C@H]1CC[C@@H](n2c(Nc3c(F)cc(Cl)cc3F)nc3cnc(N[C@H]4CCC[C@H](O)C4)nc32)CC1 [Example 460, (1R,4s)-4-(8-(4-chloro-2,6-difluorophenylamino)-2-((1S,3S)-3-hydroxycyclohexylamino)-9H-purin-9-yl)cyclohexanecarboxamide] |  |  | IC50 (Lox-IMVI anti-proliferative assay, IC50 activity level, read-out: Activity): > 1000 nM
9 | NC(=O)[C@H]1CC[C@@H](n2c(Nc3c(F)cc(F)cc3Cl)nc3cnc(NC[C@@H]4CCCC[C@@H]4O)nc32)CC1 [Example 653, (1R,4s)-4-(8-(2-chloro-4,6-difluorophenylamino)-2-(((1S,2S)-2-hydroxycyclohexyl)methylamino)-9H-purin-9-yl)cyclohexanecarboxamide] | > 1000 |  | 
10 | NC(=O)[C@H]1CC[C@@H](n2c(Nc3cccc(Cl)c3F)nc3cnc(N[C@@H]4CCC[C@H]4O)nc32)CC1 [Example 263, (1S,4s)-4-(8-(3-chloro-2-fluorophenylamino)-2-((1R,2R)-2-hydroxycyclopentylamino)-9H-purin-9-yl)cyclohexanecarboxamide] |  | > 1000 | 
11 | C[C@]1(C(N)=O)CC[C@@H](n2c(Nc3c(Cl)cc(Cl)cc3Cl)nc3cnc(N[C@H]4CCOC[C@@H]4F)nc32)CC1 [Example 802, (1R,4s)-4-(2-(((3R,4S)-3-fluorotetrahydro-2H-pyran-4-yl)amino)-8-((2,4,6-trichlorophenyl)amino)-9H-purin-9-yl)-1-methylcyclohexane-1-carboxamide] |  |  | IC50 (Lox-IMVI anti-proliferative assay, cell-based, read-out: Activity (IC50 activity level)): < 250 nM
